From PubChem BioAssay (NCI)
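96-well plates; 48 h exposure; 5 concentrations. Endpoints by linear interpolation between flanking doses. Not reached: highest tested concentration assigned. At the GI50, growth is halved. TGI is the concentration that stops growth completely.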

Experiments:
Assay in all cases: NCI-60 cell line screen, 48 h
HOP-62 NSCLC = system: HOP-62 NSCLC
IGROV1 ovarian = system: IGROV1 ovarian
A549 NSCLC = system: A549 NSCLC
SR leukemia = system: SR leukemia
OVCAR-3 ovarian = system: OVCAR-3 ovarian
SK-MEL-28 melanoma = system: SK-MEL-28 melanoma
KM12 colon = system: KM12 colon
LOX IMVI melanoma = system: LOX IMVI melanoma
BT-549 breast = system: BT-549 breast
PC-3 prostate = system: PC-3 prostate

CN(C(=O)C12C3C4C1C1C2C3C41C(=O)N(C)C(C)(C)C)C(C)(C)C (stereo not given)
TGI (HOP-62 NSCLC): > 50 µM
TGI (IGROV1 ovarian): > 50 µM
TGI (A549 NSCLC): > 50 µM
TGI (SR leukemia): > 50 µM
TGI (OVCAR-3 ovarian): > 50 µM
TGI (SK-MEL-28 melanoma): > 50 µM

CC1(C)C(=O)CCC(=O)C(C)(C)C2=CC=C(O2)C(C)(C)C(=O)CCC(=O)C(C)(C)C2=CC=C1O2
TGI (HOP-62 NSCLC): > 100 µM
TGI (KM12 colon): > 100 µM
TGI (IGROV1 ovarian): > 100 µM
TGI (A549 NSCLC): > 100 µM
TGI (SR leukemia): > 100 µM
TGI (OVCAR-3 ovarian): > 100 µM
TGI (LOX IMVI melanoma): > 100 µM
TGI (SK-MEL-28 melanoma): > 100 µM

CC(C)(C)C1CCP(=O)(c2ccccc2)CC1 (stereo not given)
TGI (HOP-62 NSCLC): > 100 µM
TGI (KM12 colon): > 100 µM
TGI (IGROV1 ovarian): > 100 µM
TGI (A549 NSCLC): > 100 µM
TGI (SR leukemia): > 100 µM
TGI (OVCAR-3 ovarian): > 100 µM
TGI (LOX IMVI melanoma): > 100 µM
TGI (SK-MEL-28 melanoma): > 100 µM

Cc1cc(C(=O)N2CCN(C)CC2)c2c(=O)n(-c3ccccc3)c(=O)n(CC(O)CN3CCN(c4ncccn4)CC3)c2n1 (stereo not given)
GI50 (HOP-62 NSCLC): > 100 µM
TGI (HOP-62 NSCLC): > 100 µM
GI50 (KM12 colon): > 100 µM
TGI (KM12 colon): > 100 µM
GI50 (IGROV1 ovarian): > 100 µM
TGI (IGROV1 ovarian): > 100 µM
GI50 (SR leukemia): 9.01 µM
TGI (SR leukemia): > 100 µM
GI50 (OVCAR-3 ovarian): > 100 µM
TGI (OVCAR-3 ovarian): > 100 µM
GI50 (LOX IMVI melanoma): > 100 µM
TGI (LOX IMVI melanoma): > 100 µM
GI50 (SK-MEL-28 melanoma): > 100 µM
TGI (SK-MEL-28 melanoma): > 100 µM

c1cc2ccc3cc2cc1CNCCOCCNCc1ccc2ccc(cc2c1)CNCCOCCNC3
GI50 (HOP-62 NSCLC): > 100 µM
TGI (HOP-62 NSCLC): > 100 µM
GI50 (KM12 colon): > 100 µM
TGI (KM12 colon): > 100 µM
GI50 (IGROV1 ovarian): > 100 µM
TGI (IGROV1 ovarian): > 100 µM
GI50 (A549 NSCLC): > 100 µM
TGI (A549 NSCLC): > 100 µM
GI50 (SR leukemia): > 100 µM
TGI (SR leukemia): > 100 µM
GI50 (OVCAR-3 ovarian): > 100 µM
TGI (OVCAR-3 ovarian): > 100 µM
GI50 (BT-549 breast): > 100000 nM
TGI (BT-549 breast): > 100 µM
GI50 (LOX IMVI melanoma): > 100 µM
TGI (LOX IMVI melanoma): > 100 µM
GI50 (SK-MEL-28 melanoma): > 100 µM
TGI (SK-MEL-28 melanoma): > 100 µM

COc1cc(-c2ccccc2)c(OC)cc1CCl
TGI (HOP-62 NSCLC): > 100 µM
TGI (KM12 colon): > 100 µM
TGI (IGROV1 ovarian): > 100 µM
TGI (A549 NSCLC): > 100 µM
TGI (OVCAR-3 ovarian): > 100 µM

CCOC(=O)C/C(N)=C(\C#N)C(=O)OCC
TGI (KM12 colon): > 100 µM
TGI (IGROV1 ovarian): > 100 µM
TGI (A549 NSCLC): > 100 µM
TGI (SR leukemia): > 100 µM
TGI (OVCAR-3 ovarian): > 100 µM
TGI (LOX IMVI melanoma): > 100 µM
TGI (SK-MEL-28 melanoma): > 100 µM

NC(=O)c1ccccc1NC(=O)C(=O)Nc1n[nH]c(N)n1
TGI (HOP-62 NSCLC): > 100 µM
TGI (KM12 colon): > 100 µM
TGI (IGROV1 ovarian): > 100 µM
TGI (A549 NSCLC): > 100 µM
TGI (SR leukemia): > 100 µM
TGI (OVCAR-3 ovarian): > 100 µM
TGI (LOX IMVI melanoma): > 100 µM

O=C(O)/C(=C/c1ccccc1[N+](=O)[O-])c1cccs1
TGI (HOP-62 NSCLC): > 100 µM
TGI (KM12 colon): > 100 µM
TGI (IGROV1 ovarian): > 100 µM
TGI (A549 NSCLC): > 100 µM
TGI (SR leukemia): > 100 µM
TGI (OVCAR-3 ovarian): > 100 µM
TGI (LOX IMVI melanoma): > 100 µM
TGI (SK-MEL-28 melanoma): > 100 µM

O=C(Cc1nc2ccc(C(=O)c3ccccc3)cc2[nH]c1=O)C(=O)Nc1ccc(C(F)(F)F)cc1[N+](=O)[O-]
TGI (HOP-62 NSCLC): > 100 µM
TGI (KM12 colon): > 100 µM
TGI (IGROV1 ovarian): > 100 µM
TGI (A549 NSCLC): > 100 µM
TGI (SR leukemia): > 100 µM
TGI (OVCAR-3 ovarian): > 100 µM
TGI (LOX IMVI melanoma): > 100 µM
TGI (SK-MEL-28 melanoma): > 100 µM

Cc1nn2c(=O)n(-c3cccc(-n4nnc5c(-c6ccccc6)c(C)nn5c4=O)c3C)nnc2c1-c1ccccc1
TGI (HOP-62 NSCLC): > 100 µM
TGI (IGROV1 ovarian): > 100 µM
TGI (A549 NSCLC): > 100 µM
TGI (SR leukemia): 55.8 µM
TGI (OVCAR-3 ovarian): 44.3 µM
TGI (LOX IMVI melanoma): > 100 µM

O=C(O)CC1C(=O)OC2C3COC(=O)c4cc(O)c(O)c(O)c4-c4c(cc(O)c(O)c4O)C(=O)OC2C(OC(=O)c2cc(O)c(O)c4c2C1C(O)C(=O)O4)C(OC(=O)c1cc(O)c(O)c(O)c1)O3 (stereo not given)
TGI (HOP-62 NSCLC): > 100 µM
TGI (PC-3 prostate): > 100 µM
TGI (KM12 colon): 42.6 µM
TGI (IGROV1 ovarian): > 100 µM
TGI (A549 NSCLC): > 100 µM
TGI (SR leukemia): 75.8 µM
TGI (OVCAR-3 ovarian): 72.8 µM
TGI (LOX IMVI melanoma): 31.5 µM
TGI (SK-MEL-28 melanoma): > 100 µM

Cc1no[n+]([O-])c1/C=N/NS(=O)(=O)c1ccccc1
TGI (HOP-62 NSCLC): > 100 µM
TGI (KM12 colon): > 100 µM
TGI (IGROV1 ovarian): > 100 µM
TGI (A549 NSCLC): > 100 µM
TGI (SR leukemia): > 100 µM
TGI (OVCAR-3 ovarian): > 100 µM
TGI (SK-MEL-28 melanoma): > 100 µM

CC(=O)n1cc(CC(C)O)c(=O)[nH]c1=O (stereo not given)
TGI (HOP-62 NSCLC): > 100 µM
TGI (KM12 colon): > 100 µM
TGI (IGROV1 ovarian): > 100 µM
TGI (A549 NSCLC): > 100 µM
TGI (SR leukemia): > 100 µM
TGI (OVCAR-3 ovarian): > 100 µM
TGI (LOX IMVI melanoma): > 100 µM
TGI (SK-MEL-28 melanoma): > 100 µM

C/C(=C\CCc1ccsc1)CC/C=C(\C)CCCN1CCN(CCO)CC1
GI50 (HOP-62 NSCLC): 2.6 µM
TGI (HOP-62 NSCLC): 6.4 µM
GI50 (KM12 colon): 2.38 µM
TGI (KM12 colon): 5.66 µM
GI50 (IGROV1 ovarian): 4.68 µM
TGI (IGROV1 ovarian): 18.9 µM
GI50 (A549 NSCLC): 3.05 µM
TGI (A549 NSCLC): 13.3 µM
GI50 (SR leukemia): 1.93 µM
TGI (SR leukemia): 4.71 µM
GI50 (OVCAR-3 ovarian): 3.16 µM
TGI (OVCAR-3 ovarian): 11.2 µM
GI50 (BT-549 breast): 2780 nM
TGI (BT-549 breast): 10.9 µM
GI50 (LOX IMVI melanoma): 1.8 µM
TGI (LOX IMVI melanoma): 3.37 µM
GI50 (SK-MEL-28 melanoma): 1.87 µM
TGI (SK-MEL-28 melanoma): 3.91 µM

COc1ccccc1NC(=O)CC(=O)n1nc(-c2ccccc2)c(N=Nc2ccccc2[N+](=O)[O-])c1-c1ccccc1
TGI (HOP-62 NSCLC): > 100 µM
TGI (KM12 colon): > 100 µM
TGI (IGROV1 ovarian): > 100 µM
TGI (A549 NSCLC): > 100 µM
TGI (SR leukemia): > 100 µM
TGI (OVCAR-3 ovarian): > 100 µM
TGI (LOX IMVI melanoma): > 100 µM
TGI (SK-MEL-28 melanoma): > 100 µM
